Data reported in PubChem BioAssay AID328 (DTP/NCI, 2004).
Several values for one entry are separate records, joined by “and”; a condition that tells them apart may be missing. Equal entries are not always repeated. Toxic doses and inconclusive results are not listed.

System: BDF1 mice, P388 leukemia ip, median survival T/C
Assay: NCI In Vivo Anticancer Drug Screen. Data for tumor model P388 Leukemia (intraperitoneal) in B6D2F1 (BDF1) mice
Settings: endpoint: median survival time, higher = longer survival
How it was run: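 In tumour-bearing mice, survival after compound treatment is set against the vehicle group and given as a quotient.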

[1] = dose: 100.0 mg/kg/injection, schedule: Q01DX009 (ip), vehicle: saline with Tween-80
[2] = dose: 100.0 mg/kg/injection, schedule: Q04DX003 (ip), vehicle: saline with Tween-80
[3] = dose: 200.0 mg/kg/injection, schedule: Q01DX009 (ip), vehicle: saline with Tween-80
[4] = dose: 200.0 mg/kg/injection, schedule: Q04DX003 (ip), vehicle: saline with Tween-80
[5] = dose: 400.0 mg/kg/injection, schedule: Q01DX009 (ip), vehicle: saline with Tween-80
[6] = dose: 400.0 mg/kg/injection, schedule: Q04DX003 (ip), vehicle: saline with Tween-80
[7] = dose: 12.5 mg/kg/injection, schedule: Q01DX009 (ip), vehicle: Klucel (hydroxypropylcellulose) (HPC)
[8] = dose: 25.0 mg/kg/injection, schedule: Q01DX009 (ip), vehicle: Klucel (hydroxypropylcellulose) (HPC)
[9] = dose: 25.0 mg/kg/injection, schedule: Q04DX003 (ip), vehicle: saline with Tween-80
[10] = dose: 50.0 mg/kg/injection, schedule: Q04DX003 (ip), vehicle: saline with Tween-80
[11] = dose: 100.0 mg/kg/injection, schedule: Q04DX003 (ip), vehicle: Klucel (hydroxypropylcellulose) (HPC)
[12] = dose: 200.0 mg/kg/injection, schedule: Q04DX003 (ip), vehicle: Klucel (hydroxypropylcellulose) (HPC)
[13] = dose: 25.0 mg/kg/injection, schedule: Q01DX009 (ip), vehicle: saline with Tween-80
[14] = dose: 50.0 mg/kg/injection, schedule: Q01DX009 (ip), vehicle: saline with Tween-80

Cc1ccc(C)c(-n2nnc3ccccc3c2=O)c1
T/C [1]: 100 % of control
T/C [2]: 100 % of control
T/C [3]: 86 % of control
T/C [4]: 90 % of control
T/C [5]: 100 % of control
T/C [6]: 100 % of control

C1CNCC[N-]1.C1CNCC[N-]1.[Cl][Pt+2]([Cl])([Cl])[Cl]
T/C (dose: 3.12 mg/kg/injection, schedule: Q04DX003 (ip), vehicle: saline): 106 % of control and 115 % of control
T/C (dose: 6.25 mg/kg/injection, schedule: Q01DX009 (ip), vehicle: saline): 106 % of control
T/C (dose: 6.25 mg/kg/injection, schedule: Q04DX003 (ip), vehicle: saline): 100 % of control and 115 % of control
T/C [7]: 108 % of control
T/C (dose: 12.5 mg/kg/injection, schedule: Q04DX003 (ip), vehicle: saline): 93 % of control and 98 % of control and 100 % of control
T/C [8]: 120 % of control
T/C (dose: 25.0 mg/kg/injection, schedule: Q04DX003 (ip), vehicle: saline): 108 % of control

O=C1N(Cl)C(=O)C(c2ccc(Cl)cc2)(c2ccc(Cl)cc2)N1Cl
T/C (dose: 22.0 mg/kg/injection, schedule: Q04DX003 (ip), vehicle: saline with Tween-80): 115 % of control
T/C (dose: 22.0 mg/kg/injection, schedule: Q04DX003 (ip), vehicle: saline): 91 % of control
T/C (dose: 25.0 mg/kg/injection, schedule: Q02DX005 (ip), vehicle: Klucel (hydroxypropylcellulose) (HPC)): 110 % of control
T/C (dose: 25.0 mg/kg/injection, schedule: Q04DX003 (ip), vehicle: Klucel (hydroxypropylcellulose) (HPC)): 105 % of control
T/C [9]: 104 % of control
T/C (dose: 30.0 mg/kg/injection, schedule: Q04DX003 (ip), vehicle: Klucel (hydroxypropylcellulose) (HPC)): 100 % of control
T/C (dose: 33.0 mg/kg/injection, schedule: Q04DX003 (ip), vehicle: saline with Tween-80): 123 % of control
T/C (dose: 33.0 mg/kg/injection, schedule: Q04DX003 (ip), vehicle: saline): 116 % of control
T/C (dose: 38.5 mg/kg/injection, schedule: Q04DX003 (ip), vehicle: saline with Tween-80): 120 % of control
T/C (dose: 50.0 mg/kg/injection, schedule: Q02DX005 (ip), vehicle: Klucel (hydroxypropylcellulose) (HPC)): 124 % of control
T/C (dose: 50.0 mg/kg/injection, schedule: Q04DX003 (ip), vehicle: Klucel (hydroxypropylcellulose) (HPC)): 96 % of control
T/C [10]: 153 % of control
T/C (dose: 50.0 mg/kg/injection, schedule: Q04DX003 (ip), vehicle: saline): 120 % of control
T/C (dose: 60.0 mg/kg/injection, schedule: Q04DX003 (ip), vehicle: Klucel (hydroxypropylcellulose) (HPC)): 111 % of control
T/C (dose: 75.0 mg/kg/injection, schedule: Q04DX003 (ip), vehicle: saline with Tween-80): 150 % of control
T/C (dose: 75.0 mg/kg/injection, schedule: Q04DX003 (ip), vehicle: saline): 120 % of control
T/C (dose: 100.0 mg/kg/injection, schedule: Q02DX005 (ip), vehicle: Klucel (hydroxypropylcellulose) (HPC)): 151 % of control
T/C [11]: 96 % of control
T/C (dose: 100.0 mg/kg/injection, schedule: Q04DX003 (ip), vehicle: saline sonified): 160 % of control
T/C [2]: 150 % of control and 154 % of control
T/C (dose: 132.0 mg/kg/injection, schedule: Q02DX005 (ip), vehicle: Klucel (hydroxypropylcellulose) (HPC)): 150 % of control
T/C (dose: 132.0 mg/kg/injection, schedule: Q04DX003 (ip), vehicle: saline with Tween-80): 112 % of control and 117 % of control
T/C (dose: 200.0 mg/kg/injection, schedule: Q01DX009 (ip), vehicle: Klucel (hydroxypropylcellulose) (HPC)): 156 % of control
T/C (dose: 200.0 mg/kg/injection, schedule: Q02DX005 (ip), vehicle: Klucel (hydroxypropylcellulose) (HPC)): 155 % of control and 171 % of control
T/C [12]: 98 % of control
T/C (dose: 200.0 mg/kg/injection, schedule: Q04DX003 (ip), vehicle: saline sonified): 180 % of control
T/C (dose: 300.0 mg/kg/injection, schedule: Q01DX009 (ip), vehicle: Klucel (hydroxypropylcellulose) (HPC)): 95 % of control
T/C (dose: 300.0 mg/kg/injection, schedule: Q02DX005 (ip), vehicle: Klucel (hydroxypropylcellulose) (HPC)): 152 % of control
T/C (dose: 300.0 mg/kg/injection, schedule: Q04DX003 (ip), vehicle: Klucel (hydroxypropylcellulose) (HPC)): 114 % of control
T/C (dose: 380.0 mg/kg/injection, schedule: Q04DX003 (ip), vehicle: Klucel (hydroxypropylcellulose) (HPC)): 100 % of control
T/C (dose: 400.0 mg/kg/injection, schedule: Q04DX003 (ip), vehicle: saline sonified): 190 % of control

CC1=CCCC(C)C12CCC(C(C)(C)O)C2 (stereo not given)
T/C [1]: 92 % of control
T/C [2]: 100 % of control
T/C [3]: 92 % of control
T/C [4]: 113 % of control
T/C [6]: 118 % of control

COc1c(O)c(OC)c(C(=O)/C=C/c2ccccc2)c(O)c1OC
T/C [13]: 107 % of control
T/C [14]: 114 % of control
T/C [1]: 99 % of control

C[C@]12CCC(=O)C(O)=C1CC[C@@H]1[C@@H]2CC[C@@]2(C)[C@H]1CC[C@]2(C)O
T/C (dose: 66.0 mg/kg/injection, schedule: Q01DX009 (ip), vehicle: saline with Tween-80): 104 % of control
T/C [1]: 95 % of control
T/C (dose: 150.0 mg/kg/injection, schedule: Q01DX009 (ip), vehicle: saline with Tween-80): 95 % of control
T/C (dose: 200.0 mg/kg/injection, schedule: Q01DX009 (ip), vehicle: saline sonified): 90 % of control
T/C (dose: 400.0 mg/kg/injection, schedule: Q01DX009 (ip), vehicle: saline sonified): 90 % of control

O=c1n(CCCl)c(=O)n(CCCl)c(=O)n1CCCl
T/C [1]: 110 % of control
T/C [2]: 100 % of control
T/C [3]: 110 % of control
T/C [4]: 104 % of control
T/C [5]: 100 % of control
T/C [6]: 104 % of control

C(=N\C(/N=C/c1ccccc1)c1ccccc1)/c1ccccc1
T/C (dose: 100.0 mg/kg/injection, schedule: Q01DX009 (ip), vehicle: Klucel (hydroxypropylcellulose) (HPC)): 91 % of control
T/C [11]: 100 % of control
T/C [12]: 95 % of control
T/C (dose: 400.0 mg/kg/injection, schedule: Q01DX009 (ip), vehicle: Klucel (hydroxypropylcellulose) (HPC)): 87 % of control
T/C (dose: 400.0 mg/kg/injection, schedule: Q04DX003 (ip), vehicle: Klucel (hydroxypropylcellulose) (HPC)): 100 % of control

CCCCCCCCCCCCCCC(F)C(=O)O (stereo not given)
T/C (dose: 6.25 mg/kg/injection, schedule: Q01DX009 (ip), vehicle: Klucel (hydroxypropylcellulose) (HPC)): 100 % of control
T/C [7]: 91 % of control
T/C [8]: 91 % of control and 95 % of control
T/C [11]: 95 % of control

CC(=O)OC1C=CCC2C(=O)C3=C(C(=O)c4ccccc4C3=O)C(=O)C12 (stereo not given)
T/C (dose: 3.12 mg/kg/injection, schedule: Q01DX009 (ip), vehicle: saline with Tween-80): 98 % of control
T/C (dose: 6.25 mg/kg/injection, schedule: Q01DX009 (ip), vehicle: saline with Tween-80): 98 % of control
T/C (dose: 12.5 mg/kg/injection, schedule: Q01DX009 (ip), vehicle: saline with Tween-80): 107 % of control
T/C [13]: 112 % of control
T/C [14]: 112 % of control

COC(OC)c1[nH]c(=S)[nH]c(=O)c1Cc1cc([N+](=O)[O-])ccc1O
T/C [9]: 104 % of control
T/C [10]: 108 % of control
T/C [2]: 95 % of control
T/C [4]: 104 % of control
T/C [6]: 90 % of control

CC(=O)OCC(OC(C)=O)C(OC(C)=O)C(OC(C)=O)C(/C=N/NC(N)=S)=N/NC(N)=S (stereo not given)
T/C (dose: 50.0 mg/kg/injection, schedule: Q01DX009 (ip), vehicle: other): 90 % of control
T/C (dose: 100.0 mg/kg/injection, schedule: Q01DX009 (ip), vehicle: other): 100 % of control
T/C (dose: 100.0 mg/kg/injection, schedule: Q04DX003 (ip), vehicle: other): 95 % of control
T/C (dose: 200.0 mg/kg/injection, schedule: Q01DX009 (ip), vehicle: other): 100 % of control
T/C (dose: 200.0 mg/kg/injection, schedule: Q04DX003 (ip), vehicle: other): 105 % of control
T/C (dose: 400.0 mg/kg/injection, schedule: Q04DX003 (ip), vehicle: other): 120 % of control

Cc1ccc(Cl)c([N+](=O)[O-])c1N
T/C [14]: 104 % of control
T/C [1]: 87 % of control
T/C [3]: 91 % of control

ICC1(CI)CCCCC1
T/C (dose: 100.0 mg/kg/injection, schedule: Q01DX001 (ip), vehicle: saline with Tween-80): 100 % of control
T/C (dose: 200.0 mg/kg/injection, schedule: Q01DX001 (ip), vehicle: saline with Tween-80): 108 % of control

COC(=O)C1(N)CCCC1
T/C (dose: 100.0 mg/kg/injection, schedule: Q01DX009 (ip), vehicle: saline): 91 % of control
T/C (dose: 200.0 mg/kg/injection, schedule: Q01DX009 (ip), vehicle: saline): 104 % of control
